Measurements: PMC7203576 (Frontiers in Microbiology, 2020)
Where “and” joins values, the source holds several entries; their conditions need not be identical. Equal entries are not always repeated. Where two headings read alike, the source gives them in different places. Marks after values point to notes of the source that are not given here. Residues, ends and D or L forms follow the SMILES beside them. *: point of attachment. Tridecanoyl(3R-OH,11-Me) = CCC(C)CCCCCCC[C@@H](O)CC(=O)*

Assays:
[1] = test system: Magnaporthe oryzae Triticum (MoT) isolate BTJP 4 (5)
[2] = test system: Magnaporthe oryzae Triticum (MoT) conidia; conditions: 50 μg/ml
[3] = test system: Magnaporthe oryzae Triticum (MoT) on detached wheat leaves cv. BARI Gom 24 (Prodip); conditions: in vivo

## CC(=O)c1c(O)c(C(C)=O)c(O)c(C(C)=O)c1O [2,4,6-Triacetylphloroglucinol (TAPG 3), 2,4,6-Triacetylphloroglucinol, reference compound]
[1]
  Activity against MoT: Inactive

## CC(=O)c1c(O)cc(O)c(C(C)=O)c1O [2,4-Diacetylphloroglucinol (DAPG), 2,4-Diacetylphloroglucinol, reference compound]
[1]
  Activity against MoT: Inactive

## CCCc1c(O)cc(O)c(CCC)c1O [2,4-Dipropylphloroglucinol (DPPG), 2,4-Dipropylphloroglucinol, reference compound]
[1]
  Activity against MoT: Inactive

## CCCCCCCC/C=C\CCCCCCCc1cc(O)c(C)c(O)c1 [2-Methyl-5-(8Z-heptadecenyl) resorcinol, reference compound]
[1]
  Activity against MoT: Inactive

## CCCCCCCC/C=C\CCCCCCCc1cc(O)cc(O)c1 [5-(8Z-Heptadecenyl) resorcinol, reference compound]
[1]
  Activity against MoT: Inactive

## CCCCCC[C@H]1C(=O)O[C@H](C)[C@H](NC(=O)c2cccc(NC=O)c2O)C(=O)O[C@@H](C)[C@@H]1OC(=O)CC(C)C [Antimycin-A, reference compound]
[1]
  Activity against MoT: Active

## COC1=CC(=O)C(O)=C(CCCCCCC/C=C\CCCCCCCC2=C(O)C(=O)C=C(OC)C2=O)C1=O [Ardisiaquinone A, reference compound]
[1]
  Activity against MoT: Inactive

## CCC(O)CC1CCC(C(C)C(=O)OC(C)CC2CCC(C(C)C(=O)O)O2)O1 (stereo not drawn) [Bonactin, reference compound]
[1]
  Activity against MoT: Active

## COc1ccc2c(c[n+](C)c3c4cc5c(cc4ccc23)OCO5)c1OC [Chelerythrine chloride, reference compound]
[1]
  Activity against MoT: Active

## CC[C@@H](O)C[C@@H]1CC[C@@H](O)[C@@H](C)C(=O)O[C@@H](C)C[C@H]2CC[C@H](O2)[C@H](C)C(=O)O1 [Feigrisolide C, reference compound]
[1]
  Activity against MoT: Active

## CCC(C)CCCCCCC[C@@H](O)CC(=O)N[C@@H](CC(C)C)C(=O)N[C@@H](CCC(=O)O)C(=O)N[C@@H](CC(C)C)C(=O)N[C@@H](CC(C)C)C(=O)O (stereo partly drawn) [Gageopeptide A] ({Tridecanoyl(3R-OH,11-Me)}-LELL-OH)
[1]
  Activity against MoT: Active
  Minimum inhibitory concentration (MIC) on mycelial growth: 10.0 μg/disk and 10 μg/disk
  Morphology of treated hyphae (microscopy): remarkable increase in branch frequency per unit length of hyphae, reduced polar growth, and irregular swelling of the hyphal tips
  Mycelial growth inhibition at the MIC: 12.5 ± 1.8%
  Percent inhibition of radial growth (PIRG) of mycelia: 50.5 ± 0.9%
[2]; 0 h
  Germinated conidia (% ± SE): 0 ± 0^f %
  Major morphological change/developmental transitions in the treated conidia: No germination
[2]; 6 h
  Major morphological change/developmental transitions in the treated conidia: Germinated with a short germ tube
[2]; 12 h
  Major morphological change/developmental transitions in the treated conidia: Normal germ tube
[2]; 24 h
  Major morphological change/developmental transitions in the treated conidia: Normal appressoria formed; no mycelial growth took place
  Inhibition of mycelial growth from germinated conidia: 100%
[2]; after 12 h
  Conidia with normal germ tube: 31 ± 1.7%
[2]; after 24 h
  Conidia producing normal appressoria: 27 ± 1.5%
[3]
  Average lesion length of wheat blast on detached leaves: 1.5 ± 0.2 mm

## C[C@@H]1CCC/C=C/C=C/[C@H](O)C[C@@H](O)C/C=C\C=C\[C@@H](O)C/C=C/C=C\C(=O)O1 [Macrolactin A, reference compound]
[1]
  Activity against MoT: Inactive

## C[C@H]1CCC/C=C\C=C\[C@H](O)C[C@@H](O)C/C=C\C=C\[C@@H](OC(=O)CCC(=O)O[C@H]2O[C@@H](CO)[C@H](O)[C@@H](O)[C@@H]2O)C/C=C/C=C\C(=O)O1 [Macrolactin W, reference compound]
[1]
  Activity against MoT: Inactive

## CC(=O)c1c(O)cc(O)cc1O [Monoacetylphloroglucinol (MAPG), Monoacetylphloroglucinol, reference compound]
[1]
  Activity against MoT: Inactive

## C[C@@H]1C/C=C/C=C/C=C/C=C/[C@H](O[C@@H]2O[C@H](C)[C@@H](O)[C@H](N)[C@@H]2O)C[C@@H]2O[C@](O)(C[C@@H](O)C[C@H]3O[C@@H]3/C=C/C(=O)O1)C[C@H](O)[C@H]2C(=O)O [Natamycin, reference compound]
[1]
  Activity against MoT: Inactive

## CC[C@H]1/C=C/C=C/C[C@@H](C)[C@H](O)[C@@](C)(O)C(=O)[C@@H](C)[C@H](O)[C@@H](C)C(=O)[C@@H](C)[C@H](O)[C@@H](C)/C=C/C(=O)O[C@@H]2[C@H](C)[C@H](CC1)O[C@@]1(O[C@@H](C[C@@H](C)O)[C@@H](C)CC1=O)[C@H]2C [Oligomycin B, reference compound]
[1]
  Activity against MoT: Active

## CC1(C)S[C@@H]2[C@H](NC(=O)Cc3ccccc3)C(=O)N2[C@H]1C(=O)O [Penicillin G, reference compound]
[1]
  Activity against MoT: Inactive

## Oc1cc(O)cc(O)c1 [Phloroglucinol (PG), Phloroglucinol, reference compound]
[1]
  Activity against MoT: Inactive

## CN[C@@H]1C[C@H]2O[C@@](C)([C@@H]1OC)n1c3ccccc3c3c4c(c5c6ccccc6n2c5c31)C(=O)NC4 [Staurosporine, reference compound]
[1]
  Activity against MoT: Active

## Gageopeptide B
[1]
  Activity against MoT: Active
  Minimum inhibitory concentration (MIC) on mycelial growth: 10.0 μg/disk and 10 μg/disk
  Morphology of treated hyphae (microscopy): swelling of hyphal cells, hyper-branching, loss of apical growth, and swelling of hyphal tips
  Mycelial growth inhibition at the MIC: 11.5 ± 1.6%
  Percent inhibition of radial growth (PIRG) of mycelia: 54.3 ± 3.3%
[2]; 0 h
  Germinated conidia (% ± SE): 0 ± 0^f %
  Major morphological change/developmental transitions in the treated conidia: No germination
[2]; 6 h
  Major morphological change/developmental transitions in the treated conidia: Germinated with a short germ tube
[2]; 12 h
  Major morphological change/developmental transitions in the treated conidia: Deformed germ tube (swollen)
[2]; 24 h
  Major morphological change/developmental transitions in the treated conidia: No appressoria formed; no mycelial growth took place
[2]; after 12 h
  Conidia with abnormally swollen (deformed) germ tubes: 51 ± 2.1%
[3]
  Average lesion length of wheat blast on detached leaves: 1.6 ± 0.2 mm

## Gageopeptide C
[1]
  Activity against MoT: Active
  Minimum inhibitory concentration (MIC) on mycelial growth: 2.5 μg/disk
  Morphology of treated hyphae (microscopy): extensive branching, irregular growth, and swelling in MoT hyphae
  Mycelial growth inhibition at the MIC: 42.9 ± 1.6%
  Percent inhibition of radial growth (PIRG) of mycelia: 58.1 ± 0.9% and 54.3 ± 1.6% and 49.5 ± 0.9%
[2]; 0 h
  Germinated conidia (% ± SE): 0 ± 0^f %
  Major morphological change/developmental transitions in the treated conidia: No germination
[2]; 6 h
  Major morphological change/developmental transitions in the treated conidia: Germinated with a short germ tube
[2]; 12 h
  Major morphological change/developmental transitions in the treated conidia: Deformed germ tube (swollen)
[2]; 24 h
  Major morphological change/developmental transitions in the treated conidia: 30% Normal appressoria and 11% abnormal appressoria (low melanization) formed but no mycelial growth took place
[2]; after 12 h
  Conidia with abnormally swollen (deformed) germ tubes: 10 ± 1.5%
[2]; after 24 h
  Conidia producing abnormal appressoria (low melanization): 11 ± 0.7% and 11%
  Conidia producing normal appressoria: 30 ± 0.7% and 30%
[3]
  Average lesion length of wheat blast on detached leaves: 1.8 ± 0.1 mm

## Gageopeptide D
[1]
  Activity against MoT: Active
  Minimum inhibitory concentration (MIC) on mycelial growth: 2.5 μg/disk
  Morphology of treated hyphae (microscopy): disruption of normal polar growth of hyphae by inducing excessive branching and swelling of hyphal tips
  Mycelial growth inhibition at the MIC: 20 ± 1.7%
  Percent inhibition of radial growth (PIRG) of mycelia: 45.7 ± 1.6% and 30.5 ± 0.9% and 27.6 ± 0.9%
[2]; 0 h
  Germinated conidia (% ± SE): 0 ± 0^f %
  Major morphological change/developmental transitions in the treated conidia: No germination
[2]; 6 h
  Major morphological change/developmental transitions in the treated conidia: Germinated with a short germ tube
[2]; 12 h
  Major morphological change/developmental transitions in the treated conidia: Deformed germ tube (swollen)
[2]; 24 h
  Major morphological change/developmental transitions in the treated conidia: No appressoria formed; no mycelial growth took place
[2]; after 12 h
  Conidia with abnormally swollen (deformed) germ tubes: 25 ± 1.7%
[3]
  Average lesion length of wheat blast on detached leaves: 1.8 ± 0.1 mm

## Gageostatin A [reference compound]
[1]
  Activity against MoT: Inactive

## Gageostatin B [reference compound]
[1]
  Activity against MoT: Inactive

## Gageostatin C [reference compound]
[1]
  Activity against MoT: Inactive

## Gageotetrin A [reference compound]
[1]
  Activity against MoT: Inactive

## Gageotetrin B
[1]
  Activity against MoT: Active
  Minimum inhibitory concentration (MIC) on mycelial growth: 1.5 μg/disk
  Morphology of treated hyphae (microscopy): coarse, loss of radial growth, and irregular swelling on the tips
  Mycelial growth inhibition at the MIC: 22.9 ± 1.6%
  Percent inhibition of radial growth (PIRG) of mycelia: 60.9 ± 2.5% and 59 ± 0.9% and 51.4 ± 1.7%
[2]; 0 h
  Germinated conidia (% ± SE): 0 ± 0^f %
  Major morphological change/developmental transitions in the treated conidia: No germination
[2]; 6 h
  Major morphological change/developmental transitions in the treated conidia: Germinated with a short germ tube
[2]; 12 h
  Major morphological change/developmental transitions in the treated conidia: Deformed germ tube (swollen)
[2]; 24 h
  Major morphological change/developmental transitions in the treated conidia: Abnormal appressoria formed; no mycelial growth took place
[2]; after 12 h
  Conidia with abnormally swollen (deformed) germ tubes: 41 ± 3.8%
[3]
  Average lesion length of wheat blast on detached leaves: 1.5 ± 0.1 mm

## Gageotetrin C [reference compound]
[1]
  Activity against MoT: Inactive

## Macrolactin B [reference compound]
[1]
  Activity against MoT: Active

## Neomycin [reference compound]
[1]
  Activity against MoT: Active

## Oligomycin F [reference compound]
[1]
  Activity against MoT: Active
